The source of these data is article PMC5706701, “Development of a homogenous high-throughput assay for inositol hexakisphosphate kinase 1 activity” (PLoS ONE, 2017).

The target of the assay is T1, Human IP6K1 (Homo sapiens, UniProt Q92551).
T1 construct: GST (N, cleaved yes); made in house; host or cells: C43 E. coli, pGEX-6P-2
Description: IP6K1 high-throughput screen of the Sigma LOPAC (ADP-Glo Max, single point).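 Note: final compound concentration 10µM in 5% DMSO.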 Type of assay: biochemical.

Where [1] appears, read: Sigma LOPAC single-point screen, ADP-Glo Max raw signal per well.
Where [2] appears, read: Sigma LOPAC single-point screen, Z-score from plate average and StDev.
Where [3] appears, read: LOPAC single-point screen, ADP-Glo Max raw signal per well.
Where [4] appears, read: LOPAC single-point screen, Z-score from raw signal with plate average and StDev.
Setting [5] is: LOPAC single-point screen, ADP-Glo Max luminescence raw signal per well.
Where [6] appears, read: LOPAC single-point screen, Z-score relative to plate average and StDev.
Where [7] appears, read: LOPAC single-point screen, Z-score against plate average and StDev.

Counter-ions that a name gives are not always drawn. Like-named read-outs stand apart in the source and are kept apart here.

T1 sequence (Q92551 whole entry): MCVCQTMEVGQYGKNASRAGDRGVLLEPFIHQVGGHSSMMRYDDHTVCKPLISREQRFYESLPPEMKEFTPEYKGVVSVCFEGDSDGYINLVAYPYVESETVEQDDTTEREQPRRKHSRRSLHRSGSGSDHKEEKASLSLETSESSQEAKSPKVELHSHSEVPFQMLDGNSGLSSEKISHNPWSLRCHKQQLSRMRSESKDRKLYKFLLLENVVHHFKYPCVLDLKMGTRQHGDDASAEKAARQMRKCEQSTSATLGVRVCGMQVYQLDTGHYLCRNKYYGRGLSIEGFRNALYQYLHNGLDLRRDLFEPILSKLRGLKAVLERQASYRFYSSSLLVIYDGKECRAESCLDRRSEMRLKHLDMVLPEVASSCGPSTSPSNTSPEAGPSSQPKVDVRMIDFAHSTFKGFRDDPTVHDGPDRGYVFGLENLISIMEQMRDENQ

As to `Cl.Cl.Clc1cccc(N2CCNCC2)c1`, the “Raw Signal” value under setting [1] turned out to be 60295. The compound also displayed a Z-score under setting [2] of 0.4195.
As to `CN1[C@@H]2CC[C@H]1C[C@@H](OC(=O)c1cc(Cl)cc(Cl)c1)C2` [3-Tropanyl-3,5-dichlorobenzoate], the “Raw Signal” value under setting [3] is on record as 53877. For the same compound, the Z-score under setting [4] was -0.4171.
As for `NCC1(CC(=O)O)CCCCC1` [Gabapentin], the “Raw Signal” value under setting [5] is 51688. Moreover, the Z-score under setting [6] was -0.7066.
As for `Cl.N=C(N)NN` [Aminoguanidine hydrochloride], under setting [3], the “Raw Signal” value was found to be 58743. This compound came in with a Z-score under setting [7] of 0.1462.
On to `CC[C@@H]1C(=O)OC[C@@H]1Cc1cncn1C.Cl` [(+)-Pilocarpine hydrochloride], for which the “Raw Signal” value under setting [1] was found to be 57845. Under setting [2], this compound gave a Z-score of 0.5799.
As to `Nc1cc(=O)[nH]c(N)n1` [2,6-Diamino-4-pyrimidinone], the “Raw Signal” value under setting [1] is on record as 57244. Also, the Z-score under setting [2] turned out to be 0.4218.
Consider `Cl.N[C@@H](CCC(=O)O)C(=O)O` [L-Glutamic acid hydrochloride], for which the “Raw Signal” value under setting [3] is listed as 55889. Also, under setting [7], the Z-score stood at 0.1466.
Turning to `CC[C@@H](CO)NC(=O)[C@@H]1C=C2c3cccc4[nH]cc(c34)C[C@H]2N(C)C1` [Methylergonovine maleate], the “Raw Signal” value under setting [1] amounted to 56663. Under setting [2], this compound showed a Z-score of 0.3813.
For the compound `CCN(CC)c1ncnc2c1ncn2[C@@H]1O[C@H](COP(=O)([O-])OP(=O)([O-])C(Br)(Br)P(=O)([O-])O)[C@@H](O)[C@H]1O.[Na+].[Na+].[Na+]` [ARL 67156 trisodium salt], the “Raw Signal” value under setting [5] is listed as 54051. Moreover, under setting [6], the Z-score is given as -0.6802.
With LY-367,265, under setting [5], the “Raw Signal” value amounted to 62501. The Z-score (LOPAC single-point screen, Z-score from plate average and StDev) came to 1.362.
For `CCCCc1oc2ccccc2c1C(=O)c1cc(I)c(OCCN(CC)CC)c(I)c1` [Amiodarone hydrochloride], under setting [3], the “Raw Signal” value came out at 57216. Further, under setting [4], the Z-score is -0.1228.
For the compound `O=c1cc(-c2ccc(O)cc2)oc2cc(O)cc(O)c12` [Apigenin], the “Raw Signal” value under setting [5] was determined as 54339. Moreover, the Z-score under setting [6] is -0.6295.
As to `CN1CCCC1c1cccnc1.O=C(O)C(O)C(O)C(=O)O` (single isomer, unassigned; (-)) [(-)-Nicotine hydrogen tartrate salt], the “Raw Signal” value is on record as 64466 and the Z-score came out at 1.692.
In the case of `CN[C@H](CC(=O)O)C(=O)O` [N-Methyl-D-aspartic acid], the “Raw Signal” value under setting [1] is listed as 57133. Under setting [2], this compound yielded a Z-score of 0.4603.
Consider `CCCN(CCC)CCc1cccc2c1CC(=O)N2` [Ropinirole hydrochloride], for which the “Raw Signal” value under setting [3] was determined as 53968. Under setting [4], the Z-score is -0.3994.
Take `CC[C@H](NC(=O)c1c(C)c(-c2ccccc2)nc2ccccc12)c1ccccc1` [SB 222200]: the “Raw Signal” value under setting [3] turned out to be 57369. For the same compound, under setting [4], the Z-score is recorded as -0.09583.
For the compound `O=C(O)c1ccccc1Nc1ccccc1` [N-Phenylanthranilic acid], under setting [1], the “Raw Signal” value came out at 63268. For the same compound, under setting [2], the Z-score was determined as 0.9431.
Taken in the same sequence, the figures for `CC(C)NC[C@H](O)COc1cccc2ccccc12` [(S)-Propranolol hydrochloride] were 59687 and 0.7117.
Turning to `O=c1[nH]c2cc(C(F)(F)F)ccc2n1-c1cc(C(F)(F)F)ccc1O` [NS-1619], the “Raw Signal” value under setting [5] was found to be 51434. For the same compound, under setting [6], the Z-score is recorded as -0.4973.
With `CNCCC=C1c2ccccc2CCc2ccccc21` [Nortriptyline hydrochloride], under setting [3], the “Raw Signal” value was found to be 54505. This compound showed a Z-score under setting [7] of 0.01873.
With `N[C@@H](CCCC(=O)O)C(=O)O` [L-2-aminoadipic acid], the “Raw Signal” value under setting [3] was 59199. This compound registered a Z-score under setting [7] of 0.2265.
Taken in the same sequence, the figures for `CC(C)NCC(O)COc1ccc(CCOCC2CC2)cc1` (stereo not drawn) [Betaxolol hydrochloride] were 59138 and 0.2157.
Consider `N[C@H]1CON=C1O` [L-Cycloserine], for which the “Raw Signal” value under setting [3] is listed as 56773. Further, the Z-score under setting [4] is given as -0.2008.
The corresponding values for `Br.C[N+](C)(C)CCCCCNCC12CC3CC(CC(C3)C1)C2.[Br-]` [IEM-1460] are 53178 and -0.404.
For `CCCNCC(O)COc1ccccc1C(=O)CCc1ccccc1` (stereo not drawn) [Propafenone hydrochloride], under setting [3], the “Raw Signal” value is reported as 54187. Moreover, under setting [7], the Z-score is -0.0347.
On to `O=C(O)C1=CCCNC1` [Guvacine hydrochloride], for which the “Raw Signal” value under setting [3] came out at 56288. The compound also displayed a Z-score under setting [7] of 0.2277.
With `COc1cc(Cc2cnc(N)nc2N)cc(OC)c1OC` [Trimethoprim], the “Raw Signal” value under setting [1] was determined as 61776. Besides, the Z-score under setting [2] is reported as 1.118.
With `Oc1cc2c(cc1O)[C@H]1c3ccccc3CN[C@@H]1CC2` (racemic) [Dihydrexidine hydrochloride], the “Raw Signal” value under setting [3] is 53851. Further, under setting [4], the Z-score is given as -0.2673.
Take `O=S(=O)(NCCNC/C=C/c1ccc(Br)cc1)c1cccc2cnccc12` [H-89]: the “Raw Signal” value under setting [5] was 53512. Besides, the Z-score under setting [6] is listed as -0.7752.
Turning to `NCCSSCCN` [Cystamine dihydrochloride], the “Raw Signal” value under setting [3] is given as 58178. Under setting [7], this compound returned a Z-score of 0.04666.
Take `N#CC(C#N)=C(N)/C(C#N)=C/c1cc(O)c(O)c(O)c1` [Tyrphostin 51]: the “Raw Signal” value under setting [5] came out at 44032. For the same compound, the Z-score under setting [6] is recorded as -2.33.
On to `O=C(CCCN1CCC(O)(c2cccc(C(F)(F)F)c2)CC1)c1ccc(F)cc1` [Trifluperidol hydrochloride], for which, under setting [3], the “Raw Signal” value stood at 56876. Moreover, under setting [7], the Z-score stood at 0.1656.
The corresponding values for `N[C@@H](CS(=O)O)C(=O)O` [L-Cysteinesulfinic Acid] are 57943 and 0.005266.
Take `Cc1nc2sccn2c(=O)c1CCN1CCC(=C(c2ccccc2)c2ccc(F)cc2)CC1` [Diacylglycerol kinase inhibitor I]: under setting [1], the “Raw Signal” value is 59347. Under setting [2], this compound displayed a Z-score of 0.8489.
Turning to `CN/C(=N/CCSCc1nc[nH]c1C)NC#N` [Cimetidine], the “Raw Signal” value under setting [1] is 62612. Further, the Z-score under setting [2] was 0.8276.
Turning to R(-)-SCH-12679 maleate, under setting [5], the “Raw Signal” value is 53479. Moreover, the Z-score under setting [6] was -0.4944.
Take `CCCCN1CCC(COC(=O)c2cc(Cl)c(N)c3c2OCCO3)CC1.Cl` [SB 204070 hydrochloride]: the “Raw Signal” value under setting [1] was found to be 60689. Under setting [2], this compound showed a Z-score of 0.9064.
Turning to `COc1ccc2c(c1)c(CC(=O)N1CCOCC1)c(C)n2C(=O)c1ccc(Cl)cc1` [Indomethacin morpholinylamide], the “Raw Signal” value under setting [3] stood at 52785. In addition, the Z-score under setting [4] is given as -0.2703.
With `Oc1ccc2c3c1O[C@H]1c4oc5ccccc5c4C[C@@]4(O)[C@@H](C2)N(CC2CC2)CC[C@]314` [Naltriben methanesulfonate], the “Raw Signal” value under setting [3] amounted to 55337. Also, the Z-score under setting [7] is listed as 0.1585.
For the compound `O=c1[nH]c2ccccc2n1CCCN1CCC(n2c(=O)[nH]c3cc(Cl)ccc32)CC1` [Domperidone], the “Raw Signal” value under setting [5] turned out to be 51707. Moreover, the Z-score under setting [6] was -0.7027.
In the case of `CN1CC[C@]2(CCN3CCc4c(oc5ccccc45)[C@@H]3C2)N(C)C1=O.Cl` [MK-912], the “Raw Signal” value under setting [5] turned out to be 51307. For the same compound, under setting [6], the Z-score is given as -0.5186.
Regarding `CN1Cc2c(N)cccc2C(c2ccccc2)C1` (stereo not drawn) [Nomifensine maleate], the “Raw Signal” value under setting [3] came to 56397. This compound also gave a Z-score under setting [7] of 0.3366.
Take `COc1cc2nc(N3CCN(C(=O)C4COc5ccccc5O4)CC3)nc(N)c2cc1OC` (stereo not drawn) [Doxazosin mesylate]: under setting [1], the “Raw Signal” value was 57817. In addition, under setting [2], the Z-score is on record as 0.5382.
The corresponding values for `S=C=Nc1cccc(C2(N3CCCCC3)CCCCC2)c1` [Metaphit methanesulfonate] are 56894 and 0.4201.
As to `C[C@]12CC[C@H](O)CC1=CC[C@@H]1[C@@H]2CC[C@]2(C)C(=O)CC[C@@H]12` [trans-Dehydroandrosterone], under setting [3], the “Raw Signal” value is recorded as 53982. For the same compound, under setting [4], the Z-score is reported as -0.2407.
In the case of `Cl.Cl.Cn1cnc(CCN)c1` [1-Methylhistamine dihydrochloride], under setting [3], the “Raw Signal” value amounted to 52776. Further, under setting [4], the Z-score is -0.2718.
The corresponding values for `Cc1nc2ccccn2c(=O)c1CCN1CCC(C(=O)c2ccc(F)cc2)CC1` [Pirenperone] are 53743 and -0.4431.
Turning to `CN(C)CCC(c1ccccc1)c1ccccn1` (stereo not drawn) [Pheniramine maleate], under setting [3], the “Raw Signal” value worked out at 57488. Under setting [7], this compound had a Z-score of 0.2845.
`COc1cccc(NC(=O)/C=C/c2ccc(Cl)cc2)c1` [SB-366791]: the “Raw Signal” value under setting [5] is given as 52546. Moreover, the Z-score under setting [6] is -0.6757.
Consider `COc1cccc(C(=O)NCCN2CCN(c3ccc(Cl)cc3)CC2)c1`, for which, under setting [3], the “Raw Signal” value worked out at 55564. Further, under setting [4], the Z-score is -0.4137.
For `Cl.NCCCCCCNS(=O)(=O)c1cccc2c(Cl)cccc12` [W-7 hydrochloride], under setting [3], the “Raw Signal” value stood at 57979. In addition, the Z-score under setting [7] came out at 0.01161.
Taken in the same sequence, the figures for `C[N+]1(C)[C@@H]2CC(OC(=O)[C@H](CO)c3ccccc3)C[C@H]1[C@@H]1O[C@@H]12.O=[N+]([O-])[O-]` (single isomer, unassigned; (-)) [(-)-Scopolamine methyl nitrate] were 57036 and 0.1966.
In the case of `CNCCCC1c2ccccc2C=Cc2ccccc21` [Protriptyline hydrochloride], the “Raw Signal” value under setting [3] is reported as 55179. In addition, the Z-score under setting [4] is -0.1641.
Taken in the same sequence, the figures for `COC(=O)c1cc2c(cn1)[nH]c1ccccc12` [Methyl beta-carboline-3-carboxylate] were 53830 and -0.2715.
